How the values were obtained:
[1] = system: patient with chronic depression and post-traumatic stress disorder
[2] = system: rats; conditions: intravenous, over a 6 hour period; cited from earlier work
[3] = system: surgical patients; conditions: over 80 patients; GABA-A agonist (e.g., propofol) and adjunctive medications
Source text: This invention describes the discoveries that control, monitor, and administer the hypnotic or sedative agent such as a GABA-A agonist (e.g., propofol) and adjunctive medications at designed dosages, timing, and modes of administration to produce dreams and an unique sleep state of un-fragmented Continuous REM Sleep.

[4] = Patient A, same regimen, follow-up

CC(C)c1cccc(C(C)C)c1O [propofol, 2-6 diisopropylphenol]
patient-reported sleep recovery after the procedure ([1]; Patient A, same regimen, Continuous REM Sleep of approximately 1 hour): felt extremely rested | duration of improved ease of sleeping post-operatively [1, 4]: three | nightmares on follow-up [1, 4]: lack of nightmares | dreaming reported during the procedure ([1]; human, in vivo): profuse dreaming about gardening | replication of natural sleep cycle [2]: replicate a natural sleep cycle | achievement of Continuous REM Sleep [3]: achieved Continuous REM Sleep
